The target in this assay is T1, Ba/F3 cell EGFR Exon20 ins NPH (Homo sapiens, UniProt P00533, INS773NPH).
T1 construct: expressed in transfected cells; host or cells: Ba/F3
Put plainly: Ba/F3 cell proliferation suppression, EGFR Exon20 ins NPH. The class given is cell-based. The settings on record: GI50 class; Ba/F3 cell line with NPH inserted at Exon20 of EGFR; 72 hours. Put shortly: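 Cells (3000–5000/well) plated 24 h before compound, 12-point 3-fold dilutions at 0.3 nM to 50 um final; Ba/F3 lines grown with 5 ng/ml IL-3. Viability by CellTiter-Glo luminescence after 72 h, growth ratio vs control, GI50 from curves; triplicate.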
As to `C=CC(=O)Nc1cc(Nc2cc(N3OCC[C@@H]3c3cccc(Cl)c3C)ncn2)c(OC)cc1N1CCC(N2C[C@@H](C)O[C@@H](C)C2)CC1` [compound 528, N-(5-((6-((R)-3-(3-chloro-2-methylphenyl)isoxazolidine-2-yl)pyrimidine-4-yl)amino)-2-(4-((2S,6R)-2,6-dimethylmorpholino)piperidine-1-yl)-4-methoxyphenyl) acrylamide], the “Ba/F3 (NPH) Activity” value is given as “A (GI50 < 50 nM)”.
With `C=CC(=O)Nc1cc(Nc2cc(N3OCC[C@@H]3Cc3cccnc3)ncn2)c(OC)cc1N1CCC(N2CCN(C3CC3)[C@H](C)C2)CC1` [compound 1056, N-(2-(4-((R)-4-cyclopropyl-3-methylpiperazine-1-yl)piperidine-1-yl)-4-methoxy-5-((6-((S)-3-(pyridine-3-ylmethyl)isoxazolidine-2-yl)pyrimidine-4-yl)amino)phenyl)acrylamide], the “Ba/F3 (NPH) Activity” value is listed as “B (50 nM ≤ GI50 < 500 nM)”.
On to `C=CC(=O)Nc1cc(Nc2cc(N3OCC[C@@H]3c3ccc(Cl)c(Cl)c3F)ncn2)c(OC)cc1N1CCC(N2CC[C@H](N(C)C)C2)CC1` [compound 772, N-(5-((6-((R)-3-(3,4-dichloro-2-fluorophenyl)isoxazolidine-2-yl)pyrimidine-4-yl)amino)-2-(4-((S)-3-(dimethylamino)pyrolidine-1-yl)piperidine-1-yl)-4-methoxyphenyl) acrylamide], for which the “Ba/F3 (NPH) Activity” value is reported as “B (50 nM ≤ GI50 < 500 nM)”.
On to `C=CC(=O)Nc1cc(Nc2cc(N3OCC[C@H]3c3c(F)ccc(F)c3F)ncn2)c(OC)cc1N1CCC(N2CCN(C3CC3)CC2)CC1` [compound 937, N-(2-(4-(4-cyclopropylpiperazine-1-yl)piperidine-1-yl)-4-methoxy-5-((6-((S)-3-(2,3,6-trifluorophenyl)isoxazolidine-2-yl)pyrimidine-4-yl)amino)phenyl)acrylamide], for which the “Ba/F3 (NPH) Activity” value was “B (50 nM ≤ GI50 < 500 nM)”.
As for `C=CC(=O)Nc1cc(Nc2cc(N3OCC[C@@H]3c3ccc(F)cc3F)ncn2)c(OC)cc1N1CCN(C2CC2)C[C@@H]1C` [compound 474, N-(2-((S)-4-cyclopropyl-2-methylpiperazine-(2,4-1-yl)-5-((6-((R)-3-difluorophenyl)isoxazolidine-2-yl)pyrimidine-4-yl)amino)-4-methoxyphenyl) acrylamide], the entry is “A (GI50 < 50 nM)”.
As for `C=CC(=O)Nc1cc(Nc2cc(N3OCC[C@@H]3c3ccc(F)cc3F)ncn2)c(OC)cc1N1CCN(CCN(C)C)CC1` [compound 349, N-(5-((6-((R)-3-(2,4-difluorophenyl)isoxazolidine-2-yl)pyrimidine-4-yl)amino)-2-(4-(2-(dimethylamino)ethyl)piperazine-1-yl)-4-methoxyphenyl) acrylamide], the entry is “A (GI50 < 50 nM)”.
With `C=CC(=O)Nc1cc(Nc2cc(N3OCC[C@@H]3c3cccc(OC)c3)ncn2)c(OC)cc1N1CCC(N2CC[C@@H](N(C)C)C2)CC1` [compound 728, N-(2-(4-((R)-3-(dimethylamino)pyrolidine-1-yl)piperidine-1-yl)-4-methoxy-5-((6-((R)-3-(3-methoxyphenyl)isoxazolidine-2-yl)pyrimidine-4-yl)amino)phenyl)acrylamide], the “Ba/F3 (NPH) Activity” value is “A (GI50 < 50 nM)”.
Turning to `C=CC(=O)Nc1cc(Nc2cc(N3OCC[C@@H]3c3ccc(F)cc3F)ncn2)c(OC)cc1-n1cncc1C` [compound 377, N-(5-((6-((R)-3-(2,4-difluorophenyl)isoxazolidine-2-yl)pyrimidine-4-yl)amino)-4-methoxy-2-(5-methyl-1H-imidazole-1-yl)phenyl)acrylamide], the “Ba/F3 (NPH) Activity” value was “B (50 nM ≤ GI50 < 500 nM)”.
Take `C=CC(=O)Nc1cc(Nc2cc(N3OCC[C@@H]3c3ccc(Cl)cc3)ncn2)c(OC)cc1N1CCC(N2C[C@@H]3C[C@H]2CO3)CC1` [compound 866, N-(2-(4-((1S,4S)-2-oxa-5-azabicyclo [2.2.1]heptane-5-yl)piperidine-1-yl)-5-((6-((R)-3-(4-chlorophenyl)isoxazolidine-2-yl)pyrimidine-4-yl)amino)-4-methoxyphenyl) acrylamide]: the “Ba/F3 (NPH) Activity” value is on record as “A (GI50 < 50 nM)”.
For the compound `C=CC(=O)Nc1cc(Nc2cc(N3OCC[C@@H]3c3ccc(Cl)cc3)ncn2)c(OC)cc1N1CCC(N2CCN(C(C)=O)CC2)CC1` [compound 806, N-(2-(4-(4-acetylpiperazine-1-yl)piperidine-1-yl)-5-((6-((R)-3-(4-chlorophenyl)isoxazolidine-2-yl)pyrimidine-4-yl)amino)-4-methoxyphenyl) acrylamide], the “Ba/F3 (NPH) Activity” value was “A (GI50 < 50 nM)”.
Consider `C=CC(=O)Nc1cc(Nc2cc(N3OCC[C@@H]3c3c(F)ccc(F)c3Cl)ncn2)c(OC)cc1N1CCC(N2CCN(C3CC3)CC2)CC1` [compound 933, N-(5-((6-((R)-3-(2-chloro-3,6-difluorophenyl)isoxazolidine-2-yl)pyrimidine-4-yl)amino)-2-(4-(4-cyclopropylpiperazine-1-yl)piperidine-1-yl)-4-methoxyphenyl) acrylamide], for which the “Ba/F3 (NPH) Activity” value is “A (GI50 < 50 nM)”.
As to `C=CC(=O)Nc1cc(Nc2cc(N3OCC[C@@H]3c3ccc(Cl)c(Cl)c3)ncn2)c(OC)cc1N(C)CCN(C)C` [compound 669, N-(5-((6-((R)-3-(3,4-dichlorophenyl)isoxazolidine-2-yl)pyrimidine-4-yl)amino)-2-((2-(dimethylamino)ethyl)(methyl)amino)-4-methoxyphenyl) acrylamide], the “Ba/F3 (NPH) Activity” value was “A (GI50 < 50 nM)”.
As for `C=CC(=O)Nc1cc(Nc2cc(N3OCC[C@@H]3c3ccc(Cl)c(Cl)c3)ncn2)c(OC)cc1N(C)CCOC` [compound 679, N-(5-((6-((R)-3-(3,4-dichlorophenyl)isoxazolidine-2-yl)pyrimidine-4-yl)amino)-4-methoxy-2-((2-methoxyethyl)(methyl)amino)phenyl) acrylamide], the “Ba/F3 (NPH) Activity” value is “B (50 nM ≤ GI50 < 500 nM)”.
With `C=CC(=O)Nc1cc(Nc2cc(N3OCC[C@@H]3c3ccc(Cl)c(Cl)c3)ncn2)c(OC)cc1N1C[C@H]2C[C@@H]1CO2` [compound 671, N-(2-((1R,4R)-2-oxa-5-azabicyclo[2.2.1]heptane-5-yl)-5-((6-((R)-3-(3,4-dichlorophenyl)isoxazolidine-2-yl)pyrimidine-4-yl)amino)-4-methoxyphenyl) acrylamide], the “Ba/F3 (NPH) Activity” value was “A (GI50 < 50 nM)”.
With `C=CC(=O)Nc1cc(Nc2cc(N3OCC[C@@H]3c3ccc(F)c(Cl)c3)ncn2)c(OC)cc1N1CCC(N2CCN(C3CC3)C(C)(C)C2)CC1` [Example 181, N-(5-((6-((R)-3-(3-chloro-4-fluorophenyl)isoxazolidine-2-yl)pyrimidine-4-yl)amino)-2-(4-(4-cyclopropyl-3,3-dimethylpiperazine-1-yl)piperidine-1-yl)-4-methoxyphenyl) acrylamide], the “Ba/F3 (NPH) Activity” value is reported as “A (GI50 < 50 nM)”.
`C=CC(=O)Nc1cc(Nc2cc(N3OCC[C@@H]3c3ccc(C)nc3)ncn2)c(OC)cc1N1CCC(N2CCN(C(C)=O)CC2)CC1` [Example 232, N-(2-(4-(4-acetylpiperazine-1-yl)piperidine-1-yl)-4-methoxy-5-((6-((R)-3-(6-methylpyridine-3-yl)isoxazolidine-2-yl)pyrimidine-4-yl)amino)phenyl) acrylamide]: the “Ba/F3 (NPH) Activity” value is “B (50 nM ≤ GI50 < 500 nM)”.
Consider `C=CC(=O)Nc1cc(Nc2cc(N3OCC[C@@H]3c3ccc(F)c(F)c3)ncn2)c(OC)cc1N1CC[C@@H](N(C)C)C1` [compound 577, N-(5-((6-((R)-3-(3,4-difluorophenyl)isoxazolidine-2-yl)pyrimidine-4-yl)amino)-2-((R)-3-(dimethylamino)pyrolidine-1-yl)-4-methoxyphenyl) acrylamide], for which the “Ba/F3 (NPH) Activity” value is listed as “A (GI50 < 50 nM)”.
As for `C=CC(=O)Nc1cc(Nc2cc(N3OCC[C@@H]3c3cc(F)ccc3F)ncn2)c(OC)cc1N(C)CCOC` [compound 327, N-(5-((6-((R)-3-(2,5-difluorophenyl)isoxazolidine-2-yl)pyrimidine-4-yl)amino)-4-methoxy-2-((2-methoxyethyl) (methyl)amino)phenyl)acrylamide], the entry is “B (50 nM ≤ GI50 < 500 nM)”; as for `C=CC(=O)Nc1cc(Nc2cc(N3OCC[C@@H]3c3cccc(Cl)c3)ncn2)c(OC)cc1N1CC[C@H](N(C)C)C1` [compound 468, N-(5-((6-((R)-3-(3-chlorophenyl)isoxazolidine-2-yl)pyrimidine-4-yl)amino)-2-((S)-3-(dimethylamino)pyrolidine-1-yl)-4-methoxyphenyl) acrylamide], “A (GI50 < 50 nM)”; as for `C=CC(=O)Nc1cc(Nc2cc(N3OCC[C@@H]3c3cc(F)ccc3F)ncn2)c(OC)cc1N1CCC(N2CCN(C)CC2)CC1` [compound 765, N-(5-((6-((R)-3-(2,5-difluorophenyl)isoxazolidine-2-yl)pyrimidine-4-yl)amino)-4-methoxy-2-(4-(4-methylpiperazine-1-yl)piperidine-1-yl)phenyl)acrylamide], “A (GI50 < 50 nM)”.
Consider `C=CC(=O)Nc1cc(Nc2cc(N3OCC[C@@H]3c3cc(F)cc(F)c3)ncn2)c(OC)cc1N1CCC(N2CCOC[C@H]2C)CC1` [compound 842, N-(5-((6-((R)-3-(3,5-difluorophenyl)isoxazolidine-2-yl)pyrimidine-4-yl)amino)-4-methoxy-2-(4-((R)-3-methylmorpholino)piperidine-1-yl)phenyl) acrylamide], for which the “Ba/F3 (NPH) Activity” value was “A (GI50 < 50 nM)”.
Take `C=CC(=O)Nc1cc(Nc2cc(N3OCC[C@@H]3Cc3cccc(Cl)c3Cl)ncn2)c(OC)cc1N1CCC(N2CCO[C@H](C)C2)CC1` [compound 1011, N-(5-((6-((S)-3-(2,3-dichlorobenzyl)isoxazolidine-2-yl)pyrimidine-4-yl)amino)-4-methoxy-2-(4-((R)-2-methylmorpholino)piperidine-1-yl)phenyl) acrylamide]: the “Ba/F3 (NPH) Activity” value is “A (GI50 < 50 nM)”.

The values above are taken from patent US12157730B2, “Heteroaryl derivative, method for producing same, and pharmaceutical composition comprising same as effective component” (VORONOI INC., priority 2019, dated 2024).
